The source of these data is US20190055279A1, “NOVEL POLYPEPTIDES WITH IMPROVED PROTEOLYTIC STABILITY, AND METHODS OF PREPARING AND USING SAME” (TUFTS UNIVERSITY, priority 2015, published 2019).

T1 sequence (P43220 24-463, species assumed): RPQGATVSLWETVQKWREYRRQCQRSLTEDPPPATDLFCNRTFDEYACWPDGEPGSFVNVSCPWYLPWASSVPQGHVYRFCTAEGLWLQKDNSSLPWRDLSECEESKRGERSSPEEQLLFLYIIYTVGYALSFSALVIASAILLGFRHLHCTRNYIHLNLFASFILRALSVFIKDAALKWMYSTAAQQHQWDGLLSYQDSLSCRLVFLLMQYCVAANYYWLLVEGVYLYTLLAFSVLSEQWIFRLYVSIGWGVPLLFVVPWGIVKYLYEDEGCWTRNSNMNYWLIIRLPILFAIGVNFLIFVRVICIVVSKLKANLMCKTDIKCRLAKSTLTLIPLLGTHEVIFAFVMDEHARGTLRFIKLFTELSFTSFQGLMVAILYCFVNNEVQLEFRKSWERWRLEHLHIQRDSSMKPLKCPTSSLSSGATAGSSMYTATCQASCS

The first assay has as its target T1, GLP-1R (Homo sapiens, UniProt P43220).
T1 construct: expressed in transfected cells; host or cells: HEK293
Put plainly: GLP-1R agonist assay: CRE6x-LUC luciferase reporter in transiently transfected HEK293 cells. In kind it is cell-based.
Settings: not given
The protocol: Briefly, HEK293 cells were plated at a density of 2−3×10^3 cells per well onto clear-bottom, white, 96-well plates and grown for 2 days to ˜80% confluency. Cells were then transiently transfected by using Lipofectamine reagent (Invitrogen) with cDNA encoding (1) a GPCR (or empty expression vector); (ii) a cAMP-responsive element-luciferase reporter gene (CRE6X-luc), and (iv) β-galactosidase as a control. Cells were incubated with or without the selected peptide agonist in serum-free medium for 6 h. Luciferase activity was quantified by using Steadylite reagent (Perkin-Elmer). A β-galactosidase assay then was performed after adding the enzyme substrate 2-nitrophenyl β-d-galactopyranoside.
Cellular assays for receptor binding and intracellular signaling were carried out with the compounds of the invention. Briefly, HEK 293 cells were transiently transfected with cDNAs encoding (i) GLP-1R (or the empty expression vector), (ii) the CRE6x-LUC reporter gene (which senses cAMP production triggered by receptor stimulation), and (iii) β-galactosidase (as a control for transfection efficiency). After transfection for 24 h, cells were incubated with a peptide at various concentrations (or control/blank) in serum-free medium for 6 h. The cells were then lysed, SteadyLite reagent (PerkinElmer) is added, and luciferase activity is measured in a TopCount NXT HTS plate luminometer. After further incubation with a chromogenic substrate (2-nitrophenyl β-D-galactopyranoside), optical density at 420 nm is determined by spectrophotometry, as a control to correct for interwell transfection variability. Sigmoidal concentration-response curves of GLP-1R ligand activity is calculated to determine potency.
Plotting concentration versus the luciferase activity yielded quantitative parameters for combined binding (potency) and signaling (efficacy) in a single step. […] DPP4 treated peptides: 10 μl of 0.26 mM peptide were incubated with 2 μL DPP4 in buffer ±DMSO for 18 hrs. Control peptides: 10 μl of 0.26 mM peptide was added to buffer ±DMSO. The final DMSO concentration was the same for all peptides and all peptides were diluted to 0.26 mM concentrations for the DPP4 assay.
On the technique in general: In a reporter assay the amount or activity of a reporter protein is the signal.
As to `CC[C@H](C)[C@H](NC(=O)[C@H](Cc1ccccc1)NC(=O)[C@H](CCC(=O)O)NC(=O)[C@H](CCCCN)NC(=O)[C@H](C)NC(=O)[C@H](C)NC(=O)[C@H](CCC(N)=O)NC(=O)CNC(=O)[C@H](CCC(=O)O)NC(=O)[C@H](CC(C)C)NC(=O)[C@H](Cc1ccc(O)cc1)NC(=O)[C@H](CO)NC(=O)[C@H](CO)NC(=O)[C@@H](NC(=O)[C@H](CC(=O)O)NC(=O)[C@H](CO)NC(=O)[C@@H](NC(=O)[C@H](Cc1ccccc1)NC(=O)[C@@H](NC(=O)CNC(=O)[C@H](CCC(=O)O)NC(=O)[C@H](C)NC(=O)[C@H](Cc1c[nH]cn1)NC[C@H](C)N)[C@@H](C)O)[C@@H](C)O)C(C)C)C(=O)N[C@@H](C)C(=O)N[C@@H](Cc1c[nH]c2ccccc12)C(=O)N[C@@H](CC(C)C)C(=O)N[C@H](C(=O)N[C@@H](CCCCN)C(=O)NCC(=O)N[C@@H](CCCNC(=N)N)C(N)=O)C(C)C`, the response was half-maximal at 2.6 pM (EC50).

Still in this assay, the particulars now being: Receptor GLP-1R; agonist potency; read-out: EC50.
Regarding `CC[C@H](C)[C@H](NC(=O)[C@H](Cc1ccccc1)NC(=O)[C@H](CCC(=O)O)NC(=O)[C@H](CCCCN)NC(=O)[C@H](C)NC(=O)[C@H](C)NC(=O)[C@H](CCC(N)=O)NC(=O)CNC(=O)[C@H](CCC(=O)O)NC(=O)[C@H](CC(C)C)NC(=O)[C@H](Cc1ccc(O)cc1)NC(=O)[C@H](CO)NC(=O)[C@H](CO)NC(=O)[C@@H](NC(=O)[C@H](CC(=O)O)NC(=O)[C@H](CO)NC(=O)[C@@H](NC(=O)[C@H](Cc1ccccc1)NC(=O)[C@@H](NC(=O)CNC(=O)[C@H](CCC(=O)O)NC(=O)[C@H](C)NC(=O)[C@H](Cc1c[nH]cn1)NCc1ccc(O)cc1)[C@@H](C)O)[C@@H](C)O)C(C)C)C(=O)N[C@@H](C)C(=O)N[C@@H](Cc1c[nH]c2ccccc12)C(=O)N[C@@H](CC(C)C)C(=O)N[C@H](C(=O)N[C@@H](CCCCN)C(=O)NCC(=O)N[C@@H](CCCNC(=N)N)C(N)=O)C(C)C`, the concentration giving a half-maximal response (EC50) (commonly the concentration that produces a half-maximal response) came out at 1 pM.
On to `CC[C@H](C)[C@H](NC(=O)[C@H](Cc1ccccc1)NC(=O)[C@H](CCC(=O)O)NC(=O)[C@H](CCCCN)NC(=O)[C@H](C)NC(=O)[C@H](C)NC(=O)[C@H](CCC(N)=O)NC(=O)CNC(=O)[C@H](CCC(=O)O)NC(=O)[C@H](CC(C)C)NC(=O)[C@H](Cc1ccc(O)cc1)NC(=O)[C@H](CO)NC(=O)[C@H](CO)NC(=O)[C@@H](NC(=O)[C@H](CC(=O)O)NC(=O)[C@H](CO)NC(=O)[C@@H](NC(=O)[C@H](Cc1ccccc1)NC(=O)[C@@H](NC(=O)CNC(=O)[C@H](CCC(=O)O)NC(=O)[C@H](C)NC(=O)[C@H](Cc1c[nH]cn1)NCC(C)C)[C@@H](C)O)[C@@H](C)O)C(C)C)C(=O)N[C@@H](C)C(=O)N[C@@H](Cc1c[nH]c2ccccc12)C(=O)N[C@@H](CC(C)C)C(=O)N[C@H](C(=O)N[C@@H](CCCCN)C(=O)NCC(=O)N[C@@H](CCCNC(=N)N)C(N)=O)C(C)C` [drawing 47], for which the EC50 was 3.7 pM.
As to `CC[C@H](C)[C@H](NC(=O)[C@H](Cc1ccccc1)NC(=O)[C@H](CCC(=O)O)NC(=O)[C@H](CCCCN)NC(=O)[C@H](C)NC(=O)[C@H](C)NC(=O)[C@H](CCC(N)=O)NC(=O)CNC(=O)[C@H](CCC(=O)O)NC(=O)[C@H](CC(C)C)NC(=O)[C@H](Cc1ccc(O)cc1)NC(=O)[C@H](CO)NC(=O)[C@H](CO)NC(=O)[C@@H](NC(=O)[C@H](CC(=O)O)NC(=O)[C@H](CO)NC(=O)[C@@H](NC(=O)[C@H](Cc1ccccc1)NC(=O)[C@@H](NC(=O)CNC(=O)[C@H](CCC(=O)O)NC(=O)[C@H](C)NC(=O)[C@H](Cc1c[nH]cn1)NCc1ccccc1)[C@@H](C)O)[C@@H](C)O)C(C)C)C(=O)N[C@@H](C)C(=O)N[C@@H](Cc1c[nH]c2ccccc12)C(=O)N[C@@H](CC(C)C)C(=O)N[C@H](C(=O)N[C@@H](CCCCN)C(=O)NCC(=O)N[C@@H](CCCNC(=N)N)C(N)=O)C(C)C` [drawing 51], the EC50 was 4.4 pM.
Take `CC[C@H](C)[C@H](NC(=O)[C@H](Cc1ccccc1)NC(=O)[C@H](CCC(=O)O)NC(=O)[C@H](CCCCN)NC(=O)[C@H](C)NC(=O)[C@H](C)NC(=O)[C@H](CCC(N)=O)NC(=O)CNC(=O)[C@H](CCC(=O)O)NC(=O)[C@H](CC(C)C)NC(=O)[C@H](Cc1ccc(O)cc1)NC(=O)[C@H](CO)NC(=O)[C@H](CO)NC(=O)[C@@H](NC(=O)[C@H](CC(=O)O)NC(=O)[C@H](CO)NC(=O)[C@@H](NC(=O)[C@H](Cc1ccccc1)NC(=O)[C@@H](NC(=O)CNC(=O)[C@H](CCC(=O)O)NC(=O)[C@H](C)NC(=O)[C@H](Cc1c[nH]cn1)NCc1ccc(C2(C(F)(F)F)N=N2)cc1)[C@@H](C)O)[C@@H](C)O)C(C)C)C(=O)N[C@@H](C)C(=O)N[C@@H](Cc1c[nH]c2ccccc12)C(=O)N[C@@H](CC(C)C)C(=O)N[C@H](C(=O)N[C@@H](CCCCN)C(=O)NCC(=O)N[C@@H](CCCNC(=N)N)C(N)=O)C(C)C`: the EC50 is 123 pM.
For `CC[C@H](C)[C@H](NC(=O)[C@H](Cc1ccccc1)NC(=O)[C@H](CCC(=O)O)NC(=O)[C@H](CCCCN)NC(=O)[C@H](C)NC(=O)[C@H](C)NC(=O)[C@H](CCC(N)=O)NC(=O)CNC(=O)[C@H](CCC(=O)O)NC(=O)[C@H](CC(C)C)NC(=O)[C@H](Cc1ccc(O)cc1)NC(=O)[C@H](CO)NC(=O)[C@H](CO)NC(=O)[C@@H](NC(=O)[C@H](CC(=O)O)NC(=O)[C@H](CO)NC(=O)[C@@H](NC(=O)[C@H](Cc1ccccc1)NC(=O)[C@@H](NC(=O)CNC(=O)[C@H](CCC(=O)O)NC(=O)[C@H](C)NC(=O)[C@H](Cc1c[nH]cn1)NC(C)C)[C@@H](C)O)[C@@H](C)O)C(C)C)C(=O)N[C@@H](C)C(=O)N[C@@H](Cc1c[nH]c2ccccc12)C(=O)N[C@@H](CC(C)C)C(=O)N[C@H](C(=O)N[C@@H](CCCCN)C(=O)NCC(=O)N[C@@H](CCCNC(=N)N)C(N)=O)C(C)C`, the EC50 came out at 4.1 pM.
Regarding `CCN[C@@H](Cc1c[nH]cn1)C(=O)N[C@@H](C)C(=O)N[C@@H](CCC(=O)O)C(=O)NCC(=O)N[C@H](C(=O)N[C@@H](Cc1ccccc1)C(=O)N[C@H](C(=O)N[C@@H](CO)C(=O)N[C@@H](CC(=O)O)C(=O)N[C@H](C(=O)N[C@@H](CO)C(=O)N[C@@H](CO)C(=O)N[C@@H](Cc1ccc(O)cc1)C(=O)N[C@@H](CC(C)C)C(=O)N[C@@H](CCC(=O)O)C(=O)NCC(=O)N[C@@H](CCC(N)=O)C(=O)N[C@@H](C)C(=O)N[C@@H](C)C(=O)N[C@@H](CCCCN)C(=O)N[C@@H](CCC(=O)O)C(=O)N[C@@H](Cc1ccccc1)C(=O)N[C@H](C(=O)N[C@@H](C)C(=O)N[C@@H](Cc1c[nH]c2ccccc12)C(=O)N[C@@H](CC(C)C)C(=O)N[C@H](C(=O)N[C@@H](CCCCN)C(=O)NCC(=O)N[C@@H](CCCNC(=N)N)C(N)=O)C(C)C)[C@@H](C)CC)C(C)C)[C@@H](C)O)[C@@H](C)O`, the EC50 stood at 6.4 pM.
`CC[C@H](C)[C@H](NC(=O)[C@H](Cc1ccccc1)NC(=O)[C@H](CCC(=O)O)NC(=O)[C@H](CCCCN)NC(=O)[C@H](C)NC(=O)[C@H](C)NC(=O)[C@H](CCC(N)=O)NC(=O)CNC(=O)[C@H](CCC(=O)O)NC(=O)[C@H](CC(C)C)NC(=O)[C@H](Cc1ccc(O)cc1)NC(=O)[C@H](CO)NC(=O)[C@H](CO)NC(=O)[C@@H](NC(=O)[C@H](CC(=O)O)NC(=O)[C@H](CO)NC(=O)[C@@H](NC(=O)[C@H](Cc1ccccc1)NC(=O)[C@@H](NC(=O)CNC(=O)[C@H](CCC(=O)O)NC(=O)[C@H](C)NC(=O)[C@H](Cc1c[nH]cn1)NC[C@@H](O)[C@@H](O)[C@H](O)[C@H](O)CO)[C@@H](C)O)[C@@H](C)O)C(C)C)C(=O)N[C@@H](C)C(=O)N[C@@H](Cc1c[nH]c2ccccc12)C(=O)N[C@@H](CC(C)C)C(=O)N[C@H](C(=O)N[C@@H](CCCCN)C(=O)NCC(=O)N[C@@H](CCCNC(=N)N)C(N)=O)C(C)C`: the EC50 stood at 3200 pM.
On the same count and under the same terms, with `CC[C@H](C)[C@H](NC(=O)[C@H](Cc1ccccc1)NC(=O)[C@H](CCC(=O)O)NC(=O)[C@H](CCCCN)NC(=O)[C@H](C)NC(=O)[C@H](C)NC(=O)[C@H](CCC(N)=O)NC(=O)CNC(=O)[C@H](CCC(=O)O)NC(=O)[C@H](CC(C)C)NC(=O)[C@H](Cc1ccc(O)cc1)NC(=O)[C@H](CO)NC(=O)[C@H](CO)NC(=O)[C@@H](NC(=O)[C@H](CC(=O)O)NC(=O)[C@H](CO)NC(=O)[C@@H](NC(=O)[C@H](Cc1ccccc1)NC(=O)[C@@H](NC(=O)CNC(=O)[C@H](CCC(=O)O)NC(=O)[C@H](C)NC(=O)[C@H](Cc1c[nH]cn1)NCC12CC3CC(CC(C3)C1)C2)[C@@H](C)O)[C@@H](C)O)C(C)C)C(=O)N[C@@H](C)C(=O)N[C@@H](Cc1c[nH]c2ccccc12)C(=O)N[C@@H](CC(C)C)C(=O)N[C@H](C(=O)N[C@@H](CCCCN)C(=O)NCC(=O)N[C@@H](CCCNC(=N)N)C(N)=O)C(C)C` the figure was 3.9 pM.
